Tests used:
CYP1A2 = molecular target: T1, CYP1A2 (Homo sapiens, UniProt P05177); assay: CYP inhibition assay (P450-Glo) CYP1A2; assay type: in vitro ADME; details: P450-Glo CYP1A2 Screening System (CYP enzyme), read-out: CYP inhibition 1A2
T1 construct: purchased Promega Corp. V9770
T1 sequence (P05177 1-516): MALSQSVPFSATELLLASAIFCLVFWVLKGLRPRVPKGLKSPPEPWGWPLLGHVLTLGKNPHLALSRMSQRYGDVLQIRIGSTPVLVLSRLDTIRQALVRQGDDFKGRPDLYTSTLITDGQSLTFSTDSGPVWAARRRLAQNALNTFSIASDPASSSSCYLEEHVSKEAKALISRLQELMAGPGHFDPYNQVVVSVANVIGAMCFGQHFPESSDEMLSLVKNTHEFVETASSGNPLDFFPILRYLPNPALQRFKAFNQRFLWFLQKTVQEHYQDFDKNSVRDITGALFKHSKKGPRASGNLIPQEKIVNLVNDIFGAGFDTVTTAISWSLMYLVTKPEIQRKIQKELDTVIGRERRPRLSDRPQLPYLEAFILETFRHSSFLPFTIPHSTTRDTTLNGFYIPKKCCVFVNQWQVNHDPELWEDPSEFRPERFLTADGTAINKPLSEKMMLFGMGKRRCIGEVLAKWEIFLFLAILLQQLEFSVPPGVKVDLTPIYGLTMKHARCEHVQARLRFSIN
Source text: (§1) Five major screening systems: P450-Glo CYP1A2 Screening System (Catalog# V9770), P450-Glo CYP2C9 Screening System (Catalog# V9790), P450-Glo CYP2C19 (Catalog# V9880), P450-Glo CYP 2D6 (Catalog# V9890), and P450-Glo CYP3A4 (Catalog# V9920) were attained from Promega Corp. (Madison, WI). α-naphthoflavone, sulfaphenazole, amitriptyline, quinidine, and ketoconazole were identified as positive control inhibitors for CYP1A2, CYP2C9, CYP2C19, CYP2D6, and CYP3A4, respectively. The CYP enzyme and substrate were combined in a potassium phosphate (KPO4) buffer and the reaction is initiated by adding an NADPH regenerating system. The volume of the mixture (12.5 μL in a 96-well plate) was combined with an equal volume of test compound solution and positive control inhibitor (12.5 μL added to make the volume 25 μL). The reaction of the NADPH regeneration system was initiated by adding a 2× concentration of NADPH solution. Then an equal volume of luciferin detection reagent was added. The plates were incubated at room temperature for 20 min and the luminescence signal was measured by a microplate reader device.

[1] = Blood brain barrier PK: plasma and brain levels after iv dosing; assay type: in vivo, male SD rats; details: male rats, 5 mg/kg iv; for BBB penetration: brain level: BQL = below the quantification limit
Experimental: The biodistribution study in plasma and brain tissue was performed using eight-week-old male SD rats (Orient Bio Inc., Seongnam, Korea). Dosing vehicles were composed of DMSO, PEG400, and deionized water (5:40:55, v/v/v). 18i compound was administrated at a dose of 5 mg/kg via intravenous (I.V.). […] Brain tissues were rinsed with saline and four volumes of acetronitrile containing disopyramide were added as an internal standard for LC-MS/MS analysis. The brain samples were homogenized using a sonicator (IKA Labortechnik T10 basic ULTRA-TURRAX, Staufen, Germany) for 10 s on the ice. The plasma samples were added to nine volumes of acetonitrile and vortexed for 5 min. The samples were centrifuged (15,000 RPM, 4 °C, 10 min). The supernatant was collected and analyzed by an LC-MS/MS system.
The LC-MS/MS analysis was performed on an Agilent 1200 series (Agilent Technologies, Santa Clara, CA, USA) with an API 4000 linear ion trap triple quadruple mass spectrometer (AB Sciex, CA, USA). The chromatographic separation of the drug was carried out using a kinetex column (100 × 2.1 mm, 3 μm, Phenomenex, CA USA) with a SecurityGuard C18 guard column (4 mm × 2.0 mm i.d., Phenomenex). The flow rate was 300 µL/min with a mobile phase consisting of 0.1% formic acid in water (eluent A) and 0.1% formic acid in acetonitrile (eluent B) by linear gradient condition as follows: starting with 0 to 0.3 min, B: 5%; 0.3 to 2.5 min, B: 5 → 95%; 2.5 to 2.9 min, B: 95%; 2.9 to 3.0 min, B: 95 → 5%, and then re-equilibrated to initial conditions until 3 min. The total run time was 6 min and the injection volume of 5 μL.

hERG channel protein = molecular target: T2, hERG channel protein (Homo sapiens, UniProt Q12809); assay: hERG inhibition (Predictor hERG FP binding kit); details: at 10 uM
T2 construct: purchased Thermo Fisher Scientific, Inc
T2 sequence (Q12809 whole entry): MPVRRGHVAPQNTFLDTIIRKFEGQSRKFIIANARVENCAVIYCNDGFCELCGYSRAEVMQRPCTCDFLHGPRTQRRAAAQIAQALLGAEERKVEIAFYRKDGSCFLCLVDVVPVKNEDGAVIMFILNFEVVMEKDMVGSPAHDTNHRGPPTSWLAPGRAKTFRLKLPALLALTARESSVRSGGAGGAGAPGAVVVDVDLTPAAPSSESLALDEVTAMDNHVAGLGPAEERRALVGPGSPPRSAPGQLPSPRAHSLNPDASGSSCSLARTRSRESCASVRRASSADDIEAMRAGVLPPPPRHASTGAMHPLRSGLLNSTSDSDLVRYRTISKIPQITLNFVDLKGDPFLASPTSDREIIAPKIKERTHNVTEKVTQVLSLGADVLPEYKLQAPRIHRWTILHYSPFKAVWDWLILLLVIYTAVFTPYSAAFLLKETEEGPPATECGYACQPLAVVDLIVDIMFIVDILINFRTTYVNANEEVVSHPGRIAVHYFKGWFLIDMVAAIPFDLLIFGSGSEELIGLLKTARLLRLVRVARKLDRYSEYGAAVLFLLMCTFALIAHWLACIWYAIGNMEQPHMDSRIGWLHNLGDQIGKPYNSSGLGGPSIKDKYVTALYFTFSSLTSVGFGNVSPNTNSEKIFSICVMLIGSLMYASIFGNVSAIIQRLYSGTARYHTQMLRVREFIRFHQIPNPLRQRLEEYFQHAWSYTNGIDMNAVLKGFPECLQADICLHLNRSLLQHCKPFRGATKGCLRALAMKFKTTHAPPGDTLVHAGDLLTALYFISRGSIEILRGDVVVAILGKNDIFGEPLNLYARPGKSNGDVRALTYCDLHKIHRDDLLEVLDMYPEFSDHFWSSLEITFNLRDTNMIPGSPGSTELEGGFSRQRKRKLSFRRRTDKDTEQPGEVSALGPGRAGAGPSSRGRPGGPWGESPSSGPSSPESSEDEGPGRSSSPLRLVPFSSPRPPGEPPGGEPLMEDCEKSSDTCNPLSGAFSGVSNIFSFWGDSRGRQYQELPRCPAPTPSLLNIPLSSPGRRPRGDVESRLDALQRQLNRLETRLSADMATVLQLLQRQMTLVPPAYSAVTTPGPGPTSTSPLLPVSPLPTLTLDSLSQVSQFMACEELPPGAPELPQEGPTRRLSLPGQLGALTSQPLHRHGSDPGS
Experimental: The inhibition of binding affinity by small molecules was measured using the PredictorTM hERG FP kit (Thermo Fisher Scientific, Inc., Rockford, IL, USA). The procedure was carried out in accordance with the manufacturer's instructions. Briefly, tracer (PredictorTM hERG tracer red) was prepared with dilution in the binding buffer. The binding assay was conducted in 384 well black flat-bottom microplates (Corning Life Sciences, Lowell, MA, USA) after the serial addition of 5 μL of a 4 nM tracer, 5 μL of test compounds, and a 10 μL membrane fraction containing hERG channel protein. The mixtures were incubated at room temperature for 2 h. The fluorescence polarization (FP) was measured with an excitation filter of 530 nm and an emission filter of 585 nm using a microplate reader (Infinite […]; Tecan, Mannedorf, Switzerland).

CYP2C19 = molecular target: T3, CYP2C19 (Homo sapiens, UniProt P33261); assay: CYP inhibition assay (P450-Glo) CYP2C19; assay type: in vitro ADME; details: P450-Glo CYP2C19 Screening System (CYP enzyme), read-out: CYP inhibition 2C19
T3 construct: purchased Promega Corp. V9880
T3 sequence (P33261 whole entry): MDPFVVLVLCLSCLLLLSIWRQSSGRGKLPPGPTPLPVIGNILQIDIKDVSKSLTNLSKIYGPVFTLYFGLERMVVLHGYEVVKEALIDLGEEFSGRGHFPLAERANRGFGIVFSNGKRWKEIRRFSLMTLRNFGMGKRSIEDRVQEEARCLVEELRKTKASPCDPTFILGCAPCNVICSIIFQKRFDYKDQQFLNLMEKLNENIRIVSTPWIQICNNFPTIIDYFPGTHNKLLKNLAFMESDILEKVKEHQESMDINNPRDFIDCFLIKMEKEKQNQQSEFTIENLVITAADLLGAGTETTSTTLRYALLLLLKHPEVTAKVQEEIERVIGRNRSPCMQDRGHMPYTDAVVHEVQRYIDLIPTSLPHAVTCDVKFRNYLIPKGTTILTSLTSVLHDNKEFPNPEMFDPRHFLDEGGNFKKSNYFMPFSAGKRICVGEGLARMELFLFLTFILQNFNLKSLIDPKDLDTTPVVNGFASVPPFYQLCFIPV
Source text: as §1

Question: Which inhibition at 10 µM (CYP1A2) does the source give for `Cc1ccn(-c2cc(Cl)ccc2[C@@H](Oc2ncnc3c(-c4ccc(C[C@H](N)C(=O)O)cc4)csc23)C(F)(F)F)n1.Cl` [Compound 18i, (S)-2-amino-3-(4-(4-((R)-1-(4-chloro-2-(3-methyl-1H-pyrazol-1-yl)phenyl)-2,2,2-trifluoroethoxy)thieno[3,2-d]pyrimidin-7-yl)phenyl)propanoic acid hydrochloride] here?
Answer: 0.1%

Question: And the concentration at 0.5 h ([1]; SD, rat, plasma, 0.5 h, read-out: BBB penetration: plasma level)?
Answer: 2270 ng/mL

Question: What about the concentration at 3 h ([1]; SD, rat, plasma, 3 h, read-out: BBB penetration: plasma level) of the same molecule?
Answer: 1440 ng/mL

Question: What about the “BBB penetration: plasma level” value ([1]; 0.5 h) of the same molecule?
Answer: Plasma: 0.5 h: 2266 ng/mL

Question: What about the “BBB penetration: brain level” value ([1]; 0.5 h) of the same molecule?
Answer: Brain: 0.5 h: BQL ^a

Question: What about the “BBB penetration: plasma level” value ([1]; 3 h) of the same molecule?
Answer: 3 h: 1439 ng/mL

Question: What about the “BBB penetration: brain level” value ([1]; 3 h) of the same molecule?
Answer: 3 h: BQL

Question: And the “level below the quantification limit (text says plasma)” value ([1]; time not stated)?
Answer: < 7 ng/mL

Question: What about the Herg inhibition (hERG channel protein) of the same molecule?
Answer: <1% inhibition at 10 uM

Question: What about the inhibition at 10 µM (CYP2C19) of the same molecule?
Answer: 46.5%

From publication PMC9182086, “Identification of New Non-BBB Permeable Tryptophan Hydroxylase Inhibitors for Treating Obesity and Fatty Liver Disease” (Molecules, 2022)
